From ChEMBL document CHEMBL5113390, “Design, synthesis and antitumor evaluation of novel 1H-indole-2-carboxylic acid derivatives targeting 14-3-3η protein” (Eur J Med Chem, 2022)
Calls of active or inactive are those of the source. No cut-off for these calls is given here.

Legend:
Hep 3B2 [1] = experiment: Induction of apoptosis in human Hep3B cells assessed as early apoptotic cells at 10 uM measured after 48 hrs by Annexin V/FITC-PI staining based flow cytometry assay (reference value: 6.65%); format: functional
14-3-3 protein eta = target: T1, 14-3-3 protein eta (Homo sapiens, UniProt Q04917); experiment: Binding affinity to 14-3-3 eta (unknown origin) assessed as dissociation constant by biolayer interferometry assay
T1 sequence (Q04917 whole entry): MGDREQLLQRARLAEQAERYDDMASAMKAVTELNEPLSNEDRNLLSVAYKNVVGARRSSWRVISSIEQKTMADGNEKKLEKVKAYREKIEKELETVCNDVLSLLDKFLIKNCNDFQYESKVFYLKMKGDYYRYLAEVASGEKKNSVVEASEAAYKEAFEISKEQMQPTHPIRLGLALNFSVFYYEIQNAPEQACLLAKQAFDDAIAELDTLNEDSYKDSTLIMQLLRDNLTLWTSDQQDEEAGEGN

Hep 3B2 [2] = experiment: Induction of cell cycle arrest in human Hep3B cells assessed as accumulation at G2/M phase at 10 uM incubated for 48 hrs by flow cytometry analysis (reference value: 8.59 %); format: functional
Hep 3B2 [3] = experiment: Induction of apoptosis in human Hep3B cells assessed as necrotic cells at 2.5 uM measured after 48 hrs by Annexin V/FITC-PI staining based flow cytometry assay (reference value: 0.12%); format: functional
Hep 3B2 [4] = experiment: Induction of cell cycle arrest in human Hep3B cells assessed as accumulation at G2/M phase at 5 uM incubated for 48 hrs by flow cytometry analysis (reference value: 8.59 %); format: functional
Hep 3B2 [5] = experiment: Induction of apoptosis in human Hep3B cells assessed as viable cells at 2.5 uM measured after 48 hrs by Annexin V/FITC-PI staining based flow cytometry assay (reference value: 90.09%); format: functional; settings: read-out: Activity
Hep 3B2 [6] = experiment: Induction of apoptosis in human Hep3B cells assessed as upregulation of cleaved caspase-3 expression at 5 to 20 uM measured after 48 hrs by Western blot analysis; format: functional, cell-based; settings: dose 5-20 µM
hERG = experiment: Selectivity ratio of IC50 for inhibition of hERG by automated patch clamp analysis to IC50 for antiproliferative activity against human HepG2 cells assessed as reduction in cell viability incubated for 72 hrs by MTT assay; format: toxicity, cell-based; settings: read-out: Ratio IC50
Hep 3B2 [7] = experiment: Induction of apoptosis in human Hep3B cells assessed as necrotic cells at 5 uM measured after 48 hrs by Annexin V/FITC-PI staining based flow cytometry assay (reference value: 0.12%); format: functional
Hep 3B2 [8] = experiment: Induction of apoptosis in human Hep3B cells assessed as upregulation of cleaved caspase-8 expression measured after 48 hrs by Western blot analysis; format: functional, cell-based; settings: dose 5-20 µM, DDE = dose-dependent effect
Hep 3B2 [9] = experiment: Induction of apoptosis in human Hep3B cells assessed as late apoptotic cells at 10 uM measured after 48 hrs by Annexin V/FITC-PI staining based flow cytometry assay (reference value: 3.14%); format: functional
Hep 3B2 [10] = experiment: Downregulation of AKT expression in human Hep3B cells measured after 24 hrs by western blot analysis; format: functional, cell-based; settings: dose 0.5-5 µM, DDE = dose-dependent effect
SMMC-7721 = experiment: Antiproliferative activity against human SMMC-7721 cells assessed as reduction in cell viability incubated for 72 hrs by MTT assay; format: functional, cell-based; settings: SMMC-7721, 72 h
Hep 3B2 [11] = experiment: Induction of apoptosis in human Hep3B cells assessed as upregulation of cleaved PARP expression at 5 to 20 uM measured after 48 hrs by Western blot analysis; format: functional, cell-based; settings: dose 5-20 µM
Hep 3B2 [12] = experiment: Induction of cell cycle arrest in human Hep3B cells assessed as accumulation at G0/G1 phase at 5 uM incubated for 48 hrs by flow cytometry analysis (reference value: 60.85 %); format: functional
[13] = target: T2, 14-3-3 protein eta (Homo sapiens) (UniProt Q04917); experiment: Inhibition of 14-3-3 eta in human Hep3B cells assessed as reduction in ERK phosphorylation measured after 24 hrs by western blot analysis; format: cell-based; settings: dose 0.5-5 µM, DDE = dose-dependent effect
T2 sequence (whole entry): T1 sequence (Q04917 whole entry)

[14] = Metabolic stability in human liver microsomes assessed as intrinsic clearance; format: ADME, Microsome; settings: read-out: CLH
Hep 3B2 [15] = experiment: Induction of apoptosis in human Hep3B cells assessed as late apoptotic cells at 2.5 uM measured after 48 hrs by Annexin V/FITC-PI staining based flow cytometry assay (reference value: 3.14%); format: functional
Hep 3B2 [16] = experiment: Induction of apoptosis in human Hep3B cells assessed as late apoptotic cells at 1 uM measured after 48 hrs by Annexin V/FITC-PI staining based flow cytometry assay (reference value: 3.14%); format: functional
Hep 3B2 [17] = experiment: Induction of cell cycle arrest in human Hep3B cells assessed as accumulation at G0/G1 phase at 2.5 uM incubated for 48 hrs by flow cytometry analysis (reference value: 60.85 %); format: functional
Hep 3B2 [18] = experiment: Induction of apoptosis in human Hep3B cells assessed as early apoptotic cells at 2.5 uM measured after 48 hrs by Annexin V/FITC-PI staining based flow cytometry assay (reference value: 6.65%); format: functional

Kd (14-3-3 protein eta): 35 µM
IC50 (SMMC-7721): 2920 nM
inhibition [13]: Dde
CLint scaled [14]: 238 mL/min/kg
SMILES: COc1cccc(CNCc2c(C(=O)O)n(Cc3ccc(C)cc3)c3cc(C(C)C)ccc23)c1
Activity (Hep 3B2 [1]): 21.73%
Activity (Hep 3B2 [2]): 2.59%
Activity (Hep 3B2 [3]): 0.27%
Activity (Hep 3B2 [4]): 3.79%
viability at 2.5 µM (Hep 3B2 [5]): 86%
Activity (Hep 3B2 [6]): Active
selectivity ratio at 72 h (hERG): 10.1
Activity (Hep 3B2 [7]): 1.07%
Activity (Hep 3B2 [8]): Dde
Activity (Hep 3B2 [9]): 13.52%
inhibition (Hep 3B2 [10]): Dde
Activity (Hep 3B2 [11]): Active
Activity (Hep 3B2 [12]): 58.48%
Activity (Hep 3B2 [15]): 5.02%
Activity (Hep 3B2 [16]): 4.86%
Activity (Hep 3B2 [17]): 59.12%
Activity (Hep 3B2 [18]): 8.74%
